Source: patent US20220372040A1, “METTL3 MODULATORS” (Accent Therapeutics, Inc., priority 2020, published 2022)

Assays:
METTL3/METTL14 = METTL3/METTL14 (Homo sapiens, UniProt Q86U44); experiment: METTL3-14 standard enzyme assay (3H-SAM flashplate scintillation); type: biochemical; conditions: METTL3/METTL14 2.5 nM, RNA 100 nM, 3H-SAM 100 nM, 30 min
Description: METTL3-14 Standard Enzyme Assay
Assays were performed in a 25 μl-volume in 384-well V-bottom polypropylene microplates (Greiner Bio-One, cat. No. 781280) at ambient temperature. Optimized 1× assay buffer was 20 mM HEPES pH 7.5, 50 mM KCl, 250 μM MgCl2, 1 mM DTT, 0.01% Tween, 0.01% BSG, 0.004 U/μl RNAseOUT (cat. No. 10777019, ThermoFisher Scientific, Waltham, Mass.). For compound screening METTL3/METTL14 (final concentration, f.c.=2.5 nM) was added using a Multidrop Combi (ThermoFisher Scientific, Waltham, Mass.) and preincubated for 5 min. Reactions were started by adding 3′ biotinylated RNA (UCUGGACUAAA-biotin) (f.c.=100 nM) and 3H-SAM (f.c.=100 nM) substrates. Reactions proceeded for 30 minutes and were quenched with excess non-radioactive SAM (f.c.=15 μM). The reactions were then transferred to streptavidin-coated flashplates and incubated for 2 hours at 25° C. Following two washing cycles with 0.1% Tween-20, the plates were sealed and read on a TopCount (PerkinElmer, Waltham, Mass.) plate-based scintillation counter. For determination of kinetic parameters, reaction times were optimized so that measurements were taken during the initial velocity phase of the reaction.

PRMT5-MEP50 = PRMT5-MEP50 (Homo sapiens, UniProt O14744); experiment: PRMT5 assay (3H-SAM flashplate scintillation); type: biochemical; conditions: PRMT5-MEP50 2.5 nM, histone H4 peptide 100 nM, 3H-SAM 250 nM, 60 min
Description: Assays were performed in a 25 μl-volume in 384-well V-bottom polypropylene microplates (Greiner Bio-One, cat. No. 781280) at ambient temperature. Optimized 1× assay buffer was 20 mM Tris-HCl pH 8.0, 1 mM DTT, […]. For compound screening PRMT5-MEP50 (final concentration, f.c.=2.5 nM) was added using a Multidrop Combi (ThermoFisher Scientific, Waltham, Mass.) and preincubated for 5 min. Reactions were started by adding 3′ biotinylated histone H4 peptide acetylated on serine 1 (Ac-[…]-Biotin) (f.c.=100 nM) and 3H-SAM (f.c.=250 nM) substrates. Reactions proceeded for 60 minutes and were quenched with excess non-radioactive SAM (f.c.=15 μM). The reactions were then transferred to streptavidin-coated flashplates and incubated for 2 hours at 25° C. Following two washing cycles with 0.1% Tween-20, the plates were sealed and read on a TopCount (PerkinElmer, Waltham, Mass.) plate-based scintillation counter. For determination of kinetic parameters, reaction times were optimized so that measurements were taken during the initial velocity phase of the reaction.

Chain of PRMT5-MEP50 (O14744 whole entry): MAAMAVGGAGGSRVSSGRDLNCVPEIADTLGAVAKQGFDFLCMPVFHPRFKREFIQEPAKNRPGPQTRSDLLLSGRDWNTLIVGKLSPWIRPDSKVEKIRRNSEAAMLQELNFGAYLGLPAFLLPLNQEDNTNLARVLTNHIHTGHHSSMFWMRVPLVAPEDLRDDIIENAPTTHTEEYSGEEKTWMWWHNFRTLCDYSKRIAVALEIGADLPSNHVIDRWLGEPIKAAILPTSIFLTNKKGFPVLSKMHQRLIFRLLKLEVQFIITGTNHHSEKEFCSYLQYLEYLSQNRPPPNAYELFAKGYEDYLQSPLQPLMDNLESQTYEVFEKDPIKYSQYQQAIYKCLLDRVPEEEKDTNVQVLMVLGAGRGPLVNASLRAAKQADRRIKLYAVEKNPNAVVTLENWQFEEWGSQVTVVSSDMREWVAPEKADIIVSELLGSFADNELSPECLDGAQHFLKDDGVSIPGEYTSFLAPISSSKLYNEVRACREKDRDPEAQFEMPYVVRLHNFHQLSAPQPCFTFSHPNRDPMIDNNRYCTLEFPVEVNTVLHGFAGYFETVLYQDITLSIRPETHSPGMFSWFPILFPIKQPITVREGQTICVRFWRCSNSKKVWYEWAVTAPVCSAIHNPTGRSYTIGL
Chain of PRMT5-MEP50 (Q9BQA1 whole entry partner): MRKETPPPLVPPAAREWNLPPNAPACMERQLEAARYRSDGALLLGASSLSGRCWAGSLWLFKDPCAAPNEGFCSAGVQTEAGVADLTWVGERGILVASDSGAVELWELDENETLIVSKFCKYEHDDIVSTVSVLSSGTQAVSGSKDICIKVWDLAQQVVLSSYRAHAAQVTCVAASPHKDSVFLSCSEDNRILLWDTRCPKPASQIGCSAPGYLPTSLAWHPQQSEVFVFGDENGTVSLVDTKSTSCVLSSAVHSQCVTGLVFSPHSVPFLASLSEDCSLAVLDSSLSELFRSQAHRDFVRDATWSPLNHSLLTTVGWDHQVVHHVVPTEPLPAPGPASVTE
Chain of METTL3/METTL14 (Q86U44 whole entry, species assumed): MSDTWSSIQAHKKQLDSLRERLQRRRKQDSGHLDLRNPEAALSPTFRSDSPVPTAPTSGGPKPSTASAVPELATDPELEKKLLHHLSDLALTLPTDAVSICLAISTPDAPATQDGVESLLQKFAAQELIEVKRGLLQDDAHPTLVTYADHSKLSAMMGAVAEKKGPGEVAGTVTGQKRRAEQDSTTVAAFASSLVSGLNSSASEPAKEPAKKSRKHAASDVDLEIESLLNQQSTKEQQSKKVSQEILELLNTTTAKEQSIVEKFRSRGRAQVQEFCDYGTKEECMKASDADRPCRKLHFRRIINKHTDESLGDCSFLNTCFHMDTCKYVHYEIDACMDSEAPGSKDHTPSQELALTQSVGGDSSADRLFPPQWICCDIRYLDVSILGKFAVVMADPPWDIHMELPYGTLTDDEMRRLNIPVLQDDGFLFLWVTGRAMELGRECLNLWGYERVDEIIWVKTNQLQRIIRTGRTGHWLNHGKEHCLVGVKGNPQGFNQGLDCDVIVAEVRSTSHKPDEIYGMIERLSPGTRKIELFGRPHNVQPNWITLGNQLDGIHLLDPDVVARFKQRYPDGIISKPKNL
Chain of METTL3/METTL14 (Q9HCE5 whole entry partner, species assumed): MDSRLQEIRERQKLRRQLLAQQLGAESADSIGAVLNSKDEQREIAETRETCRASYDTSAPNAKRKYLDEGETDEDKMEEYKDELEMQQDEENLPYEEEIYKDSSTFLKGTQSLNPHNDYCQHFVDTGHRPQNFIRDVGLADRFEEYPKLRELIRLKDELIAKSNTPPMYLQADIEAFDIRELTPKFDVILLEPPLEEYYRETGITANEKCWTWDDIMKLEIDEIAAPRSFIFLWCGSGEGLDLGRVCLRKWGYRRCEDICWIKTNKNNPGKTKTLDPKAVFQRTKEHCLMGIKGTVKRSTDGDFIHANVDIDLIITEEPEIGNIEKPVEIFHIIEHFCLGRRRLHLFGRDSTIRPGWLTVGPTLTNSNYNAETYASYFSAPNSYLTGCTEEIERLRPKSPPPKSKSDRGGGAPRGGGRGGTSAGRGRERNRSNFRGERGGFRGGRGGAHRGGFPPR

| Structure (SMILES) | IC50 (METTL3/METTL14) [nM] | IC50 (PRMT5-MEP50) [nM] |
| --- | --- | --- |
| Nc1ncnc2c1ccn2-c1csc(COc2ccc3ccc(N4CCCC4)nc3c2)n1 [Compound I-54] | 100 to 1000 | > 1000 |
| Nc1ncnc2c1c(Cl)cn2-c1cccc(COc2ccc3ccc(N4CCCC4)nc3c2)c1 [Compound I-63] | > 1000 | – |
| CC(C)c1cc(N)c2ccc(OCc3cncc(-c4c[nH]c5c(N)ncnc45)c3)cc2n1 [Compound I-101] | < 10 | > 1000 |
| Cc1cc(NCCN(C)CCCCc2ccccc2)c2ccc(OCc3cncc(-n4ccc5c(N)ncnc54)c3)cc2n1 [Compound I-102] | 10 to 100 | > 1000 |
| Cc1cc(NCCN(C)CCCCCc2ccccc2)c2ccc(OCc3cncc(-n4ccc5c(N)ncnc54)c3)cc2n1 [Compound I-103] | 10 to 100 | > 1000 |
| CCc1cc(=O)c2ccc(OCc3cncc(-n4cc(C5CCCC5)c5c(N)ncnc54)c3)cc2[nH]1 [Compound I-105] | 100 to 1000 | > 1000 |
| CC(C)c1cc(N)c2ccc(CCc3cncc(-n4ccc5c(N)ncnc54)c3)cc2n1 [Compound I-129] | 10 to 100 | – |
| CC(C)c1cc(N)c2ccc(CCc3cncc(-n4cc(C5CCCC5)c5c(N)ncnc54)c3)cc2n1 [Compound I-130] | 10 to 100 | – |
| CCc1cc(NCCOC)c2ccc(OCc3cncc(-n4cc([C@H]5CCCO5)c5c(N)ncnc54)c3)cc2n1 [Compound I-133] | 10 to 100 | – |
| CCNc1ccc2ccc(CCc3cncc(-n4cc([C@H]5CCCO5)c5c(N)ncnc54)n3)cc2n1 [Compound I-139] | 10 to 100 | – |
| CCNc1ccc2ccc(CCc3cncc(-n4cc([C@@H]5CCCO5)c5c(N)ncnc54)n3)cc2n1 [Compound I-140] | < 10 | – |
| CCc1cc(N2CCNCC2)c2ccc(OCc3cncc(-n4cc([C@H]5CCCO5)c5c(N)ncnc54)c3)cc2n1 [Compound I-148] | 10 to 100 | – |
| CCc1cc(NCCOC)c2ncc(OCc3cncc(-n4cc([C@H]5CCCO5)c5c(N)ncnc54)c3)cc2n1 [Compound I-151] | 10 to 100 | – |
| CCNc1ccc2ccc(CCc3cncc(-n4cc(C5CCCO5)c5c(N)ncnc54)c3)cc2n1 (centres unmarked) [Compound I-157] | 10 to 100 | – |
| Nc1ncnc2c1c([C@H]1CCCO1)cn2-c1cncc(COc2ccc3ccc(N4CCC4)nc3c2)n1 [Compound I-160] | 10 to 100 | – |
| Nc1ncnc2c1c([C@@H]1CCCO1)cn2-c1cncc(COc2ccc3ccc(N4CCC4)nc3c2)n1 [Compound I-161] | < 10 | – |
| CCc1cc(NCCOC)c2c(F)cc(OCc3cncc(-n4cc([C@H]5CCCO5)c5c(N)ncnc54)c3)cc2n1 [Compound I-163] | 10 to 100 | – |
| CCc1cc(NCCOC)c2c(F)cc(OCc3cncc(-n4cc([C@@H]5CCCO5)c5c(N)ncnc54)c3)cc2n1 [Compound I-164] | 10 to 100 | – |
| CCc1cc(NC(C)=O)c2ccc(OCc3cncc(-n4cc([C@@H]5CCCO5)c5c(N)ncnc54)c3)cc2n1 [Compound I-165] | 10 to 100 | – |
| Nc1cc(OCc2cncc(-n3cc([C@@H]4CCCO4)c4c(N)ncnc43)c2)ccc1C(=O)N1CCNCC1 [Compound I-166] | 100 to 1000 | – |
| CCc1cc(C)c2ccc(OCc3cncc(-n4cc([C@@H]5CCCO5)c5c(N)ncnc54)c3)cc2n1 [Compound I-168] | 10 to 100 | – |
| CC1COc2ccc(OCc3cncc(-n4cc(-c5ccn(C)n5)c5c(N)ncnc54)c3)cc2N1 (centres unmarked) [Compound I-171] | > 1000 | > 1000 |
| CCc1cc(NCCOC)c2c(F)cc(OCc3cncc(-n4cc(C5CCCO5)c5c(N)ncnc54)n3)cc2n1 (centres unmarked) [Compound I-172] | > 1000 | > 1000 |
| C[S+]([O-])c1cn(-c2cncc(COc3ccc4ccc(N5CCC5)nc4c3)c2)c2ncnc(N)c12 (centres unmarked) [Compound I-173] | 100 to 1000 | > 1000 |
| CCc1cc(N(C)C2CC2)c2ccc(OCc3cncc(-n4cc([C@@H]5CCCO5)c5c(N)ncnc54)n3)cc2n1 [Compound I-174] | 10 to 100 | > 1000 |
| Nc1ncnc2c1c(CO)cn2-c1cncc(COc2ccc3ccc(N4CCC4)nc3c2)c1 [Compound I-182] | < 10 | – |
